In one assay the test system is GDF8. The assay is described as follows: AlphaScreen SureFire SMAD3 (p-Ser423/425) assay, GDF8-stimulated (GDF pSMAD (MPC11)). The class given is cell-based. As to conditions: p-SMAD-3 (Ser423/425). The text has this: (§1) Example 2: AlphaScreen® SureFire® SMAD3 (p-Ser423/425) Assay
(§2) The p-SMAD-3 (Ser423/425) SureFire® assay has been designed to measure the phosphorylation of endogenous cellular p-SMAD-3 (Ser423/425) in cell lysates and is a system for the screening of both modulators of receptor activation (e.g. agonists and antagonists) as well as agents acting intracellularly, such as small molecule inhibitors of upstream events. The assay will measure p-SMAD-3 (Ser423/425) activation by either cloned or endogenous receptors, and can be applied to primary cells.
(§3) P-SMAD-3 (Ser423/425) SureFire® Assay Protocols
(§4) 96-well Assay Protocol for 293FT and RMS13 adherent cells can be carried out manually or in high throughput with liquid handling robots.
(§5) The cells (80 μL of cells for 96 well plates) were plated in collagen coated tissue culture plates in RPMI or FreeStyle medium (Invitrogen) and incubated overnight. For manual analysis, 6 plates for GDF8, 6 plates for TGFβ, and optionally 6 plates for Alk5ca(ALK5 constitutively active) were used.
(§6) The compound dilution plates were prepared as follows: 12 μL of DMSO was transferred into first column of 96-well plate, and 16 μL of DMSO was transferred into columns 2-12 of the 96-well plate. 12 μL of compound solution was transferred into first column of the DMSO-containing 96-well plate. Three-fold dilution was performed up to column 10 of the DMSO-containing 96-well plate.
(§7) The plate containing cells were treated with compounds for about 10 minutes, and then ligand was added. GDF8 or TGFb was added to plates to stimulate. 293FL cells were stimulated for 90 minutes at 37° C.; and RMS13 cells were stimulated for 60 minutes at 37° C. The medium was then removed from the cells, and 1× Lysis Buffer (about 25 μL) was added and the plate was gently agitated on plate shaker for 5-10 minutes.
(§8) The lysate (5 μL) was then placed into 384-well shallow plates avoiding the generation of bubbles. To this, the Reaction Buffer+Activation Buffer+AlphaScreen® Acceptor beads mixture (5 μL) was added. The plate was sealed with adhesive cover and shielded from light (e.g., with metal foil), and agitated gently on plate shaker for 2 hours at room temperature.
(§9) Dilution buffer+AlphaScreen® Donor beads (2 μL) was then added, and the plate was intubated on the plate shaker for an additional 1½ hours. After completion, the plate was read on Synergy-4 or Enspire plate reader, using AlphaScreen® pSMAD3® settings.
(§10) Representative results for inhibition of GDF8 (data=GDF pSMAD (MPC11) (μM)) and TGF-β (data=TGF-β pSMAD (MPC-11) (μM)) signaling are shown in Table 1: […]
(Bead proximity is the source of the signal in Alpha formats.)

A further assay has as its system TGF-β. Nature of the assay: AlphaScreen SureFire SMAD3 (p-Ser423/425) assay, TGF-β-stimulated (TGF-β pSMAD (MPC-11)). Format: cell-based. As to conditions: p-SMAD-3 (Ser423/425).
Excerpt: as §1, §2, §3, §4, §5, §6, §7, §8, §9, §10

The mark [1] stands for this setting: Mus musculus, MPC-11, inhibition of GDF8 signaling.
[2] abbreviates: Mus musculus, MPC-11, inhibition of TGF-β signaling.

Our source for the IC50 values is patent publication US11021468B2, “TGF-ß inhibitors” (Rigel Pharmaceuticals, Inc., priority 2015, dated 2021).

In general, IC50 refers to the concentration at which inhibition is half-maximal.

In the case of `Cc1cnc(-c2ccc(F)cc2)nc1Nc1cnc2[nH]ncc2c1` [Compound 14, N-(2-(4-Fluorophenyl)-5-methylpyrimidin-4-yl)-1H-pyrazolo[3,4-b]pyridin-5-amine], the IC50 in the assay on GDF8 (setting [1]) amounted to 306 nM; with TGF-β (setting [2]), 732 nM.
For `Cc1cnc(-c2ccccc2F)nc1Nc1ccc2[nH]ncc2c1` [Compound 38, N-(2-(2-Fluorophenyl)-5-methylpyrimidin-4-yl)-1H-indazol-5-amine], in that order: 125 nM and 339 nM.
For `Nc1cccc(-c2nccc(Nc3ccc4[nH]ncc4c3)n2)c1` [Compound 31, N-(2-(3-Aminophenyl)pyrimidin-4-yl)-1H-indazol-5-amine], in that order: 463 nM and 2710 nM.
For the compound `Fc1cccc(-c2ncc(F)c(Nc3ccc4[nH]ncc4c3)n2)c1` [Compound 36, N-(5-Fluoro-2-(3-fluorophenyl)pyrimidin-4-yl)-1H-indazol-5-amine], the IC50 with GDF8 (setting [1]) came out at 555 nM; in the assay on TGF-β (setting [2]) it was 3060 nM.
For `Fc1ccc(-c2ncc(F)c(Nc3ccc4[nH]ncc4c3)n2)cc1F` [Compound 35, N-(2-(3,4-Difluorophenyl)-5-fluoropyrimidin-4-yl)-1H-indazol-5-amine] the same measures were 258 nM and 2000 nM.
For `Cc1cc(-c2ncc(C)c(Nc3cc4cn[nH]c4cc3F)n2)ccc1F` [Compound 61, 6-Fluoro-N-(2-(4-fluoro-3-methylphenyl)-5-methylpyrimidin-4-yl)-1H-indazol-5-amine], in that order: 241 nM and 535 nM.
For `Cc1cnc(-c2ccc(F)c(F)c2)nc1Nc1ccc2[nH]ncc2c1` [Compound 40, N-(2-(3,4-Difluorophenyl)-5-methylpyrimidin-4-yl)-1H-indazol-5-amine] the same measures were 58.6 nM and 174 nM.
For `Cc1cc(F)ccc1-c1nccc(Nc2ccc3[nH]ncc3c2)n1` [Compound 42, N-(2-(4-Fluoro-2-methylphenyl)pyrimidin-4-yl)-1H-indazol-5-amine], the values for the IC50 in the assay with GDF8 (setting [1]) and with TGF-β (setting [2]) were 7.6 nM and 53.3 nM, respectively.
Turning to `N#Cc1cccc(-c2nccc(Nc3ccc4[nH]ncc4c3)n2)c1` [Compound 29, N-(2-(3-Cyanophenyl)pyrimidin-4-yl)-1H-indazol-5-amine], the values for the IC50 with GDF8 (setting [1]) and in the assay with TGF-β (setting [2]) were 21.5 nM and 85.3 nM, respectively.
For `Cc1cccc(-c2nc(Nc3cnc4[nH]ncc4c3)c3ccccc3n2)n1` [Compound 2, 2-(6-Methylpyridin-2-yl)-N-(1H-pyrazolo[3,4-b]pyridin-5-yl)quinazolin-4-amine], in that order: 144 nM and 318 nM.
`Fc1ccc(-c2nccc(Nc3cnc4[nH]ncc4c3)n2)cc1F` [Compound 3, N-(2-(3,4-Difluorophenyl)pyrimidin-4-yl)-1H-pyrazolo[3,4-b]pyridin-5-amine]: the IC50 in the assay with GDF8 (setting [1]) stood at 382 nM; in the assay on TGF-β (setting [2]), 1530 nM.
For `Fc1ccc(-c2nc(Nc3ccc4[nH]ncc4c3)c3cc[nH]c3n2)c(F)c1` [Compound 7, 2-(2,4-Difluorophenyl)-N-(1H-indazol-5-yl)-7H-pyrrolo[2,3-d]pyrimidin-4-amine], in that order: 119 nM and 874 nM.
On to `COc1ccc(-c2nccc(Nc3ccc4[nH]ncc4c3)n2)cc1F` [Compound 28, N-(2-(3-Fluoro-4-methoxyphenyl)pyrimidin-4-yl)-1H-indazol-5-amine], for which the IC50 was 363 nM in the assay with GDF8 (setting [1]) and 2140 nM in the assay with TGF-β (setting [2]).
For `FC(F)(F)c1cccc(-c2nccc(Nc3ccc4[nH]ncc4c3)n2)c1` [Compound 45, N-(2-(3-Trifluoromethylphenyl)pyrimidin-4-yl)-1H-indazol-5-amine], in that order: 652 nM and 4370 nM.
For `Fc1cc(F)cc(-c2nccc(Nc3ccc4[nH]ncc4c3)n2)c1` [Compound 27, N-(2-(3,5-Difluorophenyl)pyrimidin-4-yl)-1H-indazol-5-amine] the same measures were 287 nM and 2200 nM.
As to `Cc1cnc(-c2ccc(F)c(F)c2)nc1Nc1cnc2[nH]ncc2c1` [Compound 15, N-(2-(3,4-Difluorophenyl)-5-methylpyrimidin-4-yl)-1H-pyrazolo[3,4-b]pyridin-5-amine], the IC50 in the assay on GDF8 (setting [1]) was 685 nM; in the assay on TGF-β (setting [2]), 876 nM.
For `Fc1ccc(-c2nc(Nc3ccc4[nH]ncc4c3)c3cc[nH]c3n2)cc1` [Compound 5, 2-(4-Fluorophenyl)-N-(1H-indazol-5-yl)-7H-pyrrolo[2,3-d]pyrimidin-4-amine] the same measures were 66.1 nM and 751 nM.
For `Cc1ccc(F)c(-c2nccc(Nc3ccc4[nH]ncc4c3)n2)c1` [Compound 48, N-(2-(2-Fluoro-5-methylphenyl)pyrimidin-4-yl)-1H-indazol-5-amine], in that order: 192 nM and 595 nM.
Regarding `Cc1cc(-c2ncc(C)c(Nc3cc4cn[nH]c4cc3C)n2)ccc1F` [Compound 51, N-(2-(4-Fluoro-3-methylphenyl)-5-methylpyrimidin-4-yl)-6-methyl-1H-indazol-5-amine], the IC50 with GDF8 (inhibition of GDF8 signaling) turned out to be 777 nM; in the assay on TGF-β (inhibition of TGF-β signaling) it was 829 nM.
Take `COc1cc2[nH]ncc2cc1Nc1nc(-c2ccc(F)c(F)c2)ncc1C` [Compound 63, N-(2-(3,4-Difluorophenyl)-5-methylpyrimidin-4-yl)-6-methoxy-1H-indazol-5-amine]: the IC50 in the assay with GDF8 (setting [1]) amounted to 312 nM; with TGF-β (setting [2]), 395 nM.
For `Cc1ccc(F)cc1-c1nccc(Nc2ccc3[nH]ncc3c2)n1` [Compound 26, N-(2-(5-fluoro-2-methylphenyl)pyrimidin-4-yl)-1H-indazol-5-amine] the same measures were 126 nM and 1000 nM.
For `Fc1ccc(-c2nc(Nc3ccc4[nH]ncc4c3)c3[nH]ccc3n2)cc1` [Compound 10, 2-(4-Fluorophenyl)-N-(1H-indazol-5-yl)-5H-pyrrolo[3,2-d]pyrimidin-4-amine] the same measures were 644 nM and 5130 nM.
For `Cc1cccc(-c2nc(Nc3ccc4[nH]ncc4c3)c3[nH]ccc3n2)c1` [Compound 11, N-(1H-Indazol-5-yl)-2-(3-methylphenyl)-5H-pyrrolo[3,2-d]pyrimidin-4-amine], in that order: 917 nM and 5330 nM.
`Fc1cc2[nH]ncc2cc1Nc1ccnc(-c2ccccc2F)n1` [Compound 23, 6-Fluoro-N-(2-(2-fluorophenyl)pyrimidin-4-yl)-1H-indazol-5-amine]: the IC50 in the assay with GDF8 (setting [1]) is 257 nM; in the assay with TGF-β (setting [2]) it was 1320 nM.
For `Fc1cnc(-c2ccccc2)nc1Nc1ccc2[nH]ncc2c1` [Compound 37, N-(5-Fluoro-2-phenylpyrimidin-4-yl)-1H-indazol-5-amine] the same measures were 459 nM and 3260 nM.
As for `Cc1ccccc1-c1nccc(Nc2ccc3[nH]ncc3c2)n1` [Compound 21, N-(2-(2-Methylphenyl)pyrimidin-4-yl)-1H-indazol-5-amine], the IC50 worked out at 201 nM in the assay with GDF8 (setting [1]) and 1230 nM in the assay with TGF-β (setting [2]).
For `Cc1cc2[nH]ncc2cc1Nc1nc(-c2ccc(F)c(F)c2)ncc1C` [Compound 54, N-(2-(3,4-Difluorophenyl)-5-methylpyrimidin-4-yl)-6-methyl-1H-indazol-5-amine], in that order: 492 nM and 662 nM.
For `Cc1cnc(-c2ccc(F)c(F)c2)nc1Nc1cc2cn[nH]c2cc1F` [Compound 60, 6-Fluoro-N-(2-(3,4-difluorophenyl)-5-methylpyrimidin-4-yl)-1H-indazol-5-amine] the same measures were 454 nM and 1040 nM.
With `Nc1ccccc1-c1nccc(Nc2ccc3[nH]ncc3c2)n1` [Compound 44, N-(2-(2-Aminophenyl)pyrimidin-4-yl)-1H-indazol-5-amine], the IC50 in the assay with GDF8 (setting [1]) was determined as 209 nM; in the assay on TGF-β (setting [2]), 1840 nM.
On to `Cc1cc2[nH]ncc2cc1Nc1nc(-c2ccc(F)cc2)ncc1C` [Compound 53, N-(2-(4-Fluorophenyl)-5-methylpyrimidin-4-yl)-6-methyl-1H-indazol-5-amine], for which the IC50 with GDF8 (setting [1]) came out at 540 nM; in the assay on TGF-β (setting [2]), 543 nM.
For `COc1cc2nccc(Nc3ccnc(-c4ccc(F)cc4C)n3)c2cc1OC` [Compound 47, N-(2-(4-Fluoro-2-methylphenyl)pyrimidin-4-yl)-6,7-dimethoxyquinolin-4-amine], in that order: 34.4 nM and 44.4 nM.
